From patent US12552767B2, “3-heteroaryl pyrrolidine and piperidine orexin receptor agonists” (Merck Sharp & Dohme LLC, priority 2020, dated 2026) come the findings set out here.

This assay deals with T1, human OX2R (Homo sapiens, UniProt O43614).
T1 construct: expressed in transfected cells; host or cells: CHO (Chinese hamster ovary) cells, grown under G418 selection
T1 sequence (O43614 1-444): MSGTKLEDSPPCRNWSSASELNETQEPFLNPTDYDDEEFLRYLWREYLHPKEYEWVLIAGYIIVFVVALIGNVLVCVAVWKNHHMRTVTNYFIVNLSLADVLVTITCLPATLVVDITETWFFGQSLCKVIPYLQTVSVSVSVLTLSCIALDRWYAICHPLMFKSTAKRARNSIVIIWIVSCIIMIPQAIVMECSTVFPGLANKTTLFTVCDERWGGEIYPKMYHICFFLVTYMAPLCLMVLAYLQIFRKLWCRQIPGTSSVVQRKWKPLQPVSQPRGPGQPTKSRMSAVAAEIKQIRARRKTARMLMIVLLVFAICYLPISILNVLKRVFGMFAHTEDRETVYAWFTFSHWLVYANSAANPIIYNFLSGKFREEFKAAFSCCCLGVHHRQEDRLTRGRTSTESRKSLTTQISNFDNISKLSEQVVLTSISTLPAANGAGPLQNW
The assay can be described thus: IP-One (IPOne) orexin receptor agonist assay in CHO cells expressing human OX2R. The format is cell-based. To be noted: for EC50: CHO cells expressing human OX2R, IP-One IP-1 detection, 2 hours incubation, four parameter logistic fit, read-out: OX2R Potency, EC50; for % of reference agonist maximal effect: human OX2R, percentage of sample raw value/mean max effect (reference compound at 1 uM with 100% activity). An outline of the steps: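 CHO cells stably expressing human OX2R were stimulated with compound (10-point ½-log dilutions) for 2 h at 37 °C. IP-1 accumulation was read by HTRF (IP-One, 665/620 nm). EC50 from a four-parameter fit; % effect relative to 1 μM reference agonist control.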

Structures are written as SMILES.

In the case of `O=C(OCCF)N1CCC[C@H](c2cc[nH]n2)[C@@H]1CO[C@H]1CC[C@@H](c2ccccc2)CC1` (relative stereo) [Example 111, 2-fluoroethyl (CIS)-2-((((CIS)-4-phenylcyclohexyl)oxy)methyl)-3-(1H-pyrazol-3-yl)piperidine-1-carboxylate], the EC50 was 6.29 µM and the “% of reference agonist maximal effect” value turned out to be 78.4%.
Turning to `CCNC(=O)N1CCCC(c2nc[nH]n2)C1CO[C@H]1CC[C@@H](C(C)C)CC1` (single isomer, unassigned) [Example 63, N-ethyl-2-((((CIS)-4-isopropylcyclohexyl)oxy)methyl)-3-(1H-1,2,4-triazol-3-yl)piperidine-1-carboxamide], the EC50 is 0.334 µM and the “% of reference agonist maximal effect” value came out at 100.2%.
On the same counts, the results for `CC[C@H](C)OC(=O)N1CCC[C@H](c2cc[nH]n2)[C@@H]1CO[C@H]1CC[C@@H](c2ccccc2)CC1` [Example 116, (S)-sec-butyl (CIS)-2-((((CIS)-4-phenylcyclohexyl)oxy)methyl)-3-(1H-pyrazol-3-yl)piperidine-1-carboxylate] are 7.76 µM and 56.1%.

Usually EC50 stands for the concentration that produces a half-maximal response.
